Our source for the IC50 values is patent US8058285B2, “Substituted pyrido [3′, 2′: 4, 5] thieno [3, 2-D] pyrimidines and pyrido [3′, 2′: 4, 5] furo [3, 2-D] pyrimidines used as inhibitors of the PDE-4 and/or the release of TNF-ALPHA” (The Medicines Company (Leipzig) GmbH, priority 2004, dated 2011).

In this assay the target is T1, PDE-4A (Homo sapiens, UniProt P27815).
T1 construct: PDE-4A catalytic domain comprising amino acids 342-704; made in house; host or cells: Escherichia coli
T1 sequence (P27815 342-704): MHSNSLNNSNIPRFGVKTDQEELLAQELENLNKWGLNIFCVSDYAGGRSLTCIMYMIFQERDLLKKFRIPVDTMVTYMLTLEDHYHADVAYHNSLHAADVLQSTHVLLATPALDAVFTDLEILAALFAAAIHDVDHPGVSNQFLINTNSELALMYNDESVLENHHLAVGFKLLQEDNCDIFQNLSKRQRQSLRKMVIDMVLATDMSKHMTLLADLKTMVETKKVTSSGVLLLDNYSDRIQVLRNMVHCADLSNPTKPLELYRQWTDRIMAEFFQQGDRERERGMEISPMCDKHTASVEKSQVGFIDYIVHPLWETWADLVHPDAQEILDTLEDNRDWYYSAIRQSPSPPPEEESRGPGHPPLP
Kind of assay: PDE-4A inhibitory assay (SPA). It is filed as biochemical. From the text:
Human recombinant PDE-4A catalytic domain comprising amino acids 342-704 was cloned into Escherichia coli and expressed, as described by W. Richter et al., Protein Expression and Purification (2000) 19: 375-383. The other posphodiesterases were either obtained from cell lines of human origin (TPH1 monocytes line for PDE-1, MCF7 for PDE-5) or expressed recombinantly in sf9 insect cells (for PDE-3A, PDE-3B, PDE-7A and PDE-4D) in accordance with an adapted method by Luckow, V. A. et al., in: Recombinant DNA Technology & Applications., (1991) eds. Prokop, Bajpai, R. K. & Ho, C. S., pp 97-152.
The phosphodiesterase activity was determined by the SPA assay as described by the manufacturer Amersham Biosciences and by Horton J. K and Baxendale P. M., Methods Mol. Biol. (1995) 41: 91-105.
The reaction mixtures contained 100 mM Tris-HCl (pH 7.5), 5 mM MgCl2, 3.8 mM 2-mercaptoethanol, and 1 μM cAMP or cGMP as a substrate, the inhibitors at different concentrations and also further components required for the detection of the individual isoenzymes (see below). The reaction was started by adding the enzyme. The operating volume is 100 μl in the wells of a white 96-Well microtiter plate. The test substances were produced as stock solutions in DMSO. The DMSO concentration in the reaction batch was 1% v/v. The PDE activity is not impaired with this DMSO concentration. Having started the reaction by the addition of enzyme, the samples were incubated at 22° C. for 20 min. The reaction was stopped by the addition of SPA bead suspension which contains the zinc sulfate concentration provided according to the manufacturer. Then, the beads are allowed to sediment for 30 min and the plates are analyzed on the luminescence microtiter plate reader Fluostar Optima (BMG Labtechologies).
[^3H]-cAMP was used as a substrate for determining the activity of PDE-2, -3, -4 and -7 and [^3H]-cGMP for determining the activity of PDE-5. The non-specific enzyme activities were determined in the presence of 100 μM rolipram (for PDE-4) and in the presence of 100 μM IBMX (for PDE-3 and -5) and subtracted from the test values. The incubation samples of the PDE-3 assay contain 10 μM rolipram to inhibit possible contaminations by PDE-4. The PDE-2 activity is tested using a SPA assay by Amersham Biosciences in the presence of the PDE-2 activator 5 μM cGMP. […] The selectivity as to PDEs 2, 3 and 5 has a factor of 100 to 10 000.
For orientation: IC50 means the concentration that gives 50% inhibition. Read a low IC50 as greater potency in that assay. As for `CCOc1nc(N2CCNCC2)nc2c1sc1nc(-c3ccc(-c4ccco4)cc3)nc(C)c12` [4-Ethoxy-7-(4-[2-furyl]-phenyl)-9-methyl-2-piperazin-1-yl-thieno[2,3-d:4,5-d′]dipyrimidine], the IC50 is less than 2 nM.

The compound `CCOc1nc(N2CCNCC2)nc2c1sc1nc(-c3ccc(C(O)c4cccnc4)cc3)nc(C)c12` (stereo not drawn) [4-Ethoxy-7-(4-[hydroxy{3-pyridyl}methyl]-phenyl)-9-methyl-2-piperazin-1-yl-thieno[2,3-d:4,5-d′]dipyrimidine] gave a half-inhibitory concentration (IC50) of 2 to 50 nM.

With `CCOc1ccc(-c2cc(CC)c3c(n2)sc2c(OCC)nc(N4CCNCC4)nc23)cc1` [4-Ethoxy-7-(4-ethoxy-phenyl)-9-ethyl-2-(piperazin-1-yl)-pyrido[3′,2′:4,5]thieno[3,2-d]pyrimidine], the half-inhibitory concentration (IC50) was less than 2 nM.

The compound `CCOc1nc(N2CCNCC2)nc2c1sc1nc(-c3ccc(F)cc3)cc(C(F)(F)F)c12` [4-Ethoxy-7-(4-fluoro-phenyl)-2-piperazin-1-yl-9-trifluoromethyl-pyrido[3′,2′:4,5]thieno[3,2-d]pyrimidine] registered a 50% inhibitory concentration (IC50) of 2 to 50 nM.

Regarding `CCOc1nc(N2CCNCC2)nc2c1sc1nc(-c3ccc(I)cc3)cc(C(F)(F)F)c12` [4-Ethoxy-7-(4-iodo-phenyl)-2-(piperazin-1-yl)-9-trifluoromethyl-pyrido[3′,2′:4,5]thieno[3,2-d]pyrimidine], the IC50 is less than 2 nM.

For the compound `CCOc1nc(N2CCNCC2)nc2c1sc1nc(-c3ccc(OC)cc3)cc(C(F)(F)F)c12` [4-Ethoxy-7-(4-methoxy-phenyl)-2-(piperazin-1-yl)-9-trifluoromethyl-pyrido[3′,2′:4,5]thieno[3,2-d]pyrimidine], the IC50 was less than 2 nM.

As for `CCOc1nc(N2CCNCC2)nc2c1sc1nc(-c3ccc(OC)cc3)nc(C)c12` [4-Ethoxy-7-(4-methoxy-phenyl)-9-methyl-2-piperazin-1-yl-thieno[2,3-d:4,5-d′]dipyrimidine], the IC50 is 2 to 50 nM.

As for `CCOc1nc(N2CCNCC2)nc2c1sc1nc(-c3ccc(OC)cc3)c(Cc3ccc([N+](=O)[O-])cc3)c(C)c12` [4-Ethoxy-7-(4-methoxy-phenyl)-9-methyl-8-(4-nitro-benzyl)-2-(piperazin-1-yl)-pyrido[3′,2′:4,5]thieno[3,2-d]pyrimidine], the IC50 is 2 to 50 nM.

As for `CCOc1nc(N2CCNCC2)nc2c1sc1nc(-c3ccc(C)cc3)cc(C(F)(F)F)c12` [4-Ethoxy-7-(4-methyl-phenyl)-2-(piperazin-1-yl)-9-trifluoromethyl-pyrido[3′,2′:4,5]thieno[3,2-d]pyrimidine], the IC50 was less than 2 nM.

With `CCOc1nc(N2CCNCC2)nc2c1sc1nc(-c3ccc(C)cc3)cc(C(C)C)c12` [4-Ethoxy-7-(4-methyl-phenyl)-9-iso-propyl-2-(piperazin-1-yl)-pyrido[3′,2′:4,5]thieno-[3,2-d]pyrimidine], the IC50 is less than 2 nM.

`CCOc1nc(N2CCNCC2)nc2c1sc1nc(-c3ccc(SC)cc3)cc(C(F)(F)F)c12` [4-Ethoxy-7-(4-methylthiophenyl)-2-(piperazin-1-yl)-9-trifluoromethyl-pyrido[3′,2′:4,5]thieno[3,2-d]pyrimidine] returned an IC50 of less than 2 nM.

Compound `CCOc1nc(N2CCNCC2)nc2c1sc1nc(-c3ccc(N4CCOCC4)cc3)cc(C(F)(F)F)c12` [4-Ethoxy-7-(4-morpholinophenyl)-2-(piperazin-1-yl)-9-trifluoromethyl-pyrido[3′,2′:4,5]thieno[3,2-d]pyrimidine] had an IC50 of 2 to 50 nM.

On to `CCOc1nc(N2CCNCC2)nc2c1sc1nc(-c3ccc([N+](=O)[O-])cc3)cc(C(F)(F)F)c12` [4-Ethoxy-7-(4-nitro-phenyl)-2-piperazin-1-yl-9-trifluoromethyl-pyrido[3′,2′:4,5]thieno[3,2-d]pyrimidine], for which the half-inhibitory concentration (IC50) was in the range of 2 to 50 nM.

`CCOc1nc(N2CCNCC2)nc2c1sc1nc(-c3ccc(C(F)(F)F)cc3)cc(C)c12` [4-Ethoxy-7-(4-trifluoro-methyl-phenyl)-9-methyl-2-(piperazin-1-yl)-pyrido[3′,2′:4,5]thieno[3,2-d]pyrimidine] returned an IC50 of 2 to 50 nM.

`CCOc1nc(N2CCNCC2)nc2c1sc1nc(-c3ccc(OCc4ccc([N+](=O)[O-])cc4)cc3)cc(C(F)(F)F)c12` [4-Ethoxy-7-[4-(4-nitrobenzyloxy)-phenyl]-2-piperazin-1-yl-9-trifluoromethyl-pyrido[3′,2′:4,5]thieno[3,2-d]pyrimidine]: the half-inhibitory concentration (IC50) was in the range of 2 to 50 nM.

`CCOc1nc(N2CCNCC2)nc2c1sc1nc(C)cc(-c3ccccc3)c12` [4-Ethoxy-7-methyl-9-phenyl-2-(piperazin-1-yl)-pyrido[3′,2′:4,5]thieno[3,2-d]pyrimidine] gave a half-maximal inhibitory concentration (IC50) of 2 to 50 nM.

Compound `CCOc1nc(N2CCNCC2)nc2c1sc1nc(-c3ccc4c(c3)OCCO4)cc(CC)c12` [4-Ethoxy-9-ethyl-7-(2,3-dihydrobenzo[b][1,4]dioxin-6-yl)-2-(piperazin-1-yl)-pyrido[3′,2′:4,5]thieno[3,2-d]pyrimidine] gave an IC50 of less than 2 nM.

In the case of `CCOc1nc(N2CCNCC2)nc2c1sc1nc(-c3ccc4c(c3)OCO4)cc(CC)c12` [4-Ethoxy-9-ethyl-7-(3,4-methylenedioxyphenyl)-2-piperazin-1-yl-pyrido[3′,2′:4,5]thieno-[3,2-d]pyrimidine], the IC50 is less than 2 nM.

Compound `CCOc1nc(N2CCNCC2)nc2c1sc1nc(N3CCN(c4ncccn4)CC3)cc(CC)c12` [4-Ethoxy-9-ethyl-7-(4-(pyrimidyl-2-yl)piperazin-1-yl)-2-piperazin-1-yl-pyrido[3′,2′:4,5]thieno[3,2-d]pyrimidine] showed a half-maximal inhibitory concentration (IC50) of less than 2 nM.

Regarding `CCOc1nc(N2CCNCC2)nc2c1sc1nc(-c3ccc(I)cc3)cc(CC)c12` [4-Ethoxy-9-ethyl-7-(4-iodo-phenyl)-2-(piperazin-1-yl)-pyrido[3′,2′:4,5]thieno[3,2-d]pyrimidine], the concentration for half-maximal inhibition (IC50) is less than 2 nM.

Consider `CCOc1nc(N2CCNCC2)nc2c1sc1nc(-c3ccc(OC)cc3)cc(CC)c12` [4-Ethoxy-9-ethyl-7-(4-methoxyphenyl)-2-(piperazin-1-yl)-pyrido[3′,2′:4,5]thieno[3,2-d]pyrimidine], for which the half-maximal inhibitory concentration (IC50) is less than 2 nM.

`CCOc1nc(N2CCNCC2)nc2c1sc1nc(-c3ccc(C)cc3)cc(CC)c12` [4-Ethoxy-9-ethyl-7-(4-methyl-phenyl)-2-(piperazin-1-yl)-pyrido[3′,2′:4,5]thieno[3,2-d]pyrimidine] had a concentration for half-maximal inhibition (IC50) of less than 2 nM.

`CCOc1nc(N2CCNCC2)nc2c1sc1nc(-c3ccc(SC)cc3)cc(CC)c12` [4-Ethoxy-9-ethyl-7-(4-methylthio-phenyl)-2-(piperazin-1-yl)-pyrido[3′,2′:4,5]thieno[3,2-d]pyrimidine] showed an IC50 of less than 2 nM.

In turn, `CCOc1nc(N2CCNCC2)nc2c1sc1nc(N3CCN(c4ccccc4)CC3)cc(CC)c12` [4-Ethoxy-9-ethyl-7-(4-phenyl-piperazin-1-yl)-2-piperazin-1-yl-pyrido[3′,2′:4,5]thieno[3,2-d]pyrimidine] had a half-inhibitory concentration (IC50) of 2 to 50 nM.

With `CCOc1nc(N2CCNCC2)nc2c1sc1nc(-c3ccc(Oc4ccc(OC)cc4)cc3)cc(CC)c12` [4-Ethoxy-9-ethyl-7-[4-(4-methoxyphenoxy)phenyl]-2-(piperazin-1-yl)-pyrido[3′,2′:4,5]thieno[3,2-d]pyrimidine], the IC50 was less than 2 nM.

With `CCOc1nc(N2CCNCC2)nc2c1sc1nc(-c3ccc(-c4cc(OC)c(OC)c(OC)c4)cc3)nc(C)c12` [4-Ethoxy-9-methyl-2-piperazin-1-yl-7-(3′,4′,5′-trimethoxybiphen-4-yl)-thieno[2,3-d:4,5-d′]dipyrimidine], the half-maximal inhibitory concentration (IC50) was less than 2 nM.

In the case of `CCOc1nc(N2CCNCC2)nc2c1sc1nc(-c3ccc(-c4cccnc4)cc3)nc(C)c12` [4-Ethoxy-9-methyl-2-piperazin-1-yl-7-(4-[3-pyridyl]-phenyl)-thieno[2,3-d:4,5-d′]dipyrimidine], the half-maximal inhibitory concentration (IC50) was less than 2 nM.

`CCOc1nc(N2CCNCC2)nc2c1sc1nc(-c3ccc(-c4ccncc4)cc3)nc(C)c12` [4-Ethoxy-9-methyl-2-piperazin-1-yl-7-(4-[4-pyridyl]-phenyl)-thieno[2,3-d:4,5-d′]dipyrimidine] showed a half-inhibitory concentration (IC50) of less than 2 nM.

`CCOc1nc(N2CCNCC2)nc2c1sc1nc(-c3ccc(-c4cncnc4)cc3)nc(C)c12` [4-Ethoxy-9-methyl-2-piperazin-1-yl-7-(4-[5-pyrimidinyl]-phenyl)-thieno[2,3-d:4,5-d′]dipyrimidine] gave a concentration for half-maximal inhibition (IC50) of 2 to 50 nM.

`CCOc1nc(N2CCNCC2)nc2c1sc1nc(-c3ccc(-c4ccn(C(=O)OC(C)(C)C)c4)cc3)nc(C)c12` [4-Ethoxy-9-methyl-2-piperazin-1-yl-7-(4-[N—BOC-3-pyrrolyl]-phenyl)-thieno[2,3-d:4,5-d′]dipyrimidine] showed an IC50 of 2 to 50 nM.
